Test results: US20250059201A1, “CAMPTOTHECIN COMPOUND AND CONJUGATE THEREOF” (priority 2021, published 2025)
Where “and” joins values, the source holds several entries; their conditions need not be identical. Equal values may be shown once. Read-outs that look alike come from different tables or passages of the source.

Experiments:
[1] = tested on: NCI-N87 human gastric cancer cells; test: Comparative study of the activity of camptothecins (CCK-8 cell killing); assay type: cell-based
Protocol: (§1) KB oral epithelial cancer cells (purchased from: ATCC) were cultured in DMEM medium supplemented with 10% FBS; NCI-N87 human gastric cancer cells (purchased from: ATCC) were cultured in RPMI1640 medium supplemented with 10% FBS; HT29 human colon cancer cells (purchased from: ATCC) were cultured in RPMI1640 medium supplemented with 10% FBS; and BxPC-3 human pancreatic adenocarcinoma cells (purchased from: ATCC) were cultured in RPMI1640 medium supplemented with 10% FBS.
(§2) Using corresponding media described above and in cell plates, the density of KB cells was adjusted to 2×10^4/mL; the density of NCI-N87 cells was adjusted to 5×10^4/mL; the density of HT29 cells was adjusted to 5×10^4/mL, and the cells were plated onto 96-well transparent flat bottom plates, at 100 µL/well, and cultured overnight; and the density of BxPC-3 cells was adjusted to 5×10^4/mL.
(§3) Samples to be detected were diluted to 20 μM with corresponding media, then 5-fold gradient dilution was performed, and 9 concentrations were obtained. A well having cells but with no any sample added was set as the well showing maximum cell growth; and a well having no cells was set as the well of medium background. The diluted samples were added into the cell plates, at 100 μL/well, which were then incubated in a C02 incubator for 96 hours. After the incubation, CCK-8 (purchased from: DOJINDO LABORATORIES) prepared beforehand was added into the plates, at 20 μL/well, and after further 3 hours incubation in the C02 incubator, […] were read on a microplate reader.
(§4) Data obtained was fitted to a four-parameter curve using software Prism7, and equation for calculating maximum killing is: maximum killing (%)=1−(OD450 value of the well showing maximum killing—OD450 value of the well of medium background)/(OD450 value of the well showing maximum cell growth—OD450 value of the cell of medium background)[…].

[2] = tested on: BxPC-3 human pancreatic adenocarcinoma cells; test: as above; assay type: cell-based; settings: for Emax: read-out: Maximum Killing (%), BxPC-3, killing days 4 days
Protocol: as §1, §2, §3, §4

[3] = tested on: HT29 human colon cancer cells; test: as above; assay type: cell-based; settings: HT29, killing days 4 days
Protocol: as §1, §2, §3, §4

[4] = tested on: KB oral epithelial cancer cells; test: as above; assay type: cell-based; settings: killing days 4 days
Protocol: as §1, §2, §3, §4

[5] = target: T1, Trop-2 on BxPC-3 cells (human, UniProt P09758 27-323); test: flow cytometry, fluorescently labeled drug on BxPC-3 cells, on ice 1 h (mean ± SD, n = 2)
T1 construct: whole, on cells; also called Trop-2-positive BxPC-3 tumor cells
T1 sequence (looked up): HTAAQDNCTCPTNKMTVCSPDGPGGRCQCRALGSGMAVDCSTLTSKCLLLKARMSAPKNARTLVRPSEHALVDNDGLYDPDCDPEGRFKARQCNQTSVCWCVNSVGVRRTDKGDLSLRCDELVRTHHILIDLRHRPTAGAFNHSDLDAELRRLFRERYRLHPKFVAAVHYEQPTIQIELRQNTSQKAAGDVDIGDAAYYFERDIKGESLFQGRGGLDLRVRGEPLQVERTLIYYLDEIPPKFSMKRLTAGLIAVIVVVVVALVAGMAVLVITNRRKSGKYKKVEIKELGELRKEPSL
Protocol: (§5) Different concentrations (1, 3, 10, 30, 100, 300, 1000, 3000, 10000, 30000, and 100000 ng/mL) of fluorescently labeled Trop2-ADC-14 and the mAb in Trop2-ADC-14 (i.e., antibody h23-12) were incubated with BxPC-3 cells (purchased from: ATCC) on ice for 1 hour in dark, and then the cells were centrifuged to remove supernatant, washed with PBS, re-suspended, and the fluorescence intensity of the drugs bound to the cells was measured with a flow cytometer (BD ACCURI C6 PLUS). The experiment was repeated once.

[6] = target: T1, Trop-2 on BxPC-3 cells; test: flow cytometry, fluorescently labeled antibody on BxPC-3 cells, on ice 1 h (mean ± SD, n = 2)
Protocol: as §5

[7] = Homo sapiens, NCI-N87, 96 h, read-out: Maximum Killing (%), NCI-N87, killing days 4 days
[8] = Homo sapiens, BXPC-3, 96 h, BxPC-3, killing days 4 days

CC[C@@]1(O)C(=O)OCc2c1cc1n(c2=O)Cc2c-1nc1ccc(N)c3c1c2C(C)(C)CC3 [Compound 1]
Emax [1, 7]: 92.1%

CC[C@@]1(O)C(=O)OCc2c1cc1n(c2=O)Cc2c-1nc1ccc(N)c3c1c2C1CC1C3 (some centres unmarked) [Compound 7]
Emax ([2]; Homo sapiens, BXPC-3, 96 h): 94.4% | Emax [1, 7]: 87.9%

CC[C@@]1(O)C(=O)OCc2c1cc1n(c2=O)Cc2c-1nc1ccc(N)c3c1c2CCS3 [Compound 12]
Emax ([2]; Homo sapiens, BXPC-3, 96 h): 98.5% | Emax [1, 7]: 94.9%

CC[C@@]1(O)C(=O)OCc2c1cc1n(c2=O)Cc2c-1nc1ccc(N)c3c1c2C(F)(F)CS3 [Compound 13]
EC50 [2, 8]: 1.41 nM | Emax ([2]; Homo sapiens, BXPC-3, 96 h): 98.9%

CC[C@@]1(O)C(=O)OCc2c1cc1n(c2=O)Cc2c-1nc1ccc(N)c3c1c2CC[S@+]3[O-] [Compound 14-P1]
Emax ([2]; Homo sapiens, BXPC-3, 96 h): 38.8% | Emax [1, 7]: 42.5%

CC[C@@]1(O)C(=O)OCc2c1cc1n(c2=O)Cc2c-1nc1ccc(N)c3c1c2CC[S@@+]3[O-] [Compound 14-P2]
Emax ([2]; Homo sapiens, BXPC-3, 96 h): 43.3% | Emax [1, 7]: 68.4%

CC[C@@]1(O)C(=O)OCc2c1cc1n(c2=O)Cc2c-1nc1ccc(N)c3c1c2CCO3 [Compound 14]
EC50 [2, 8]: 6.46 nM | Emax ([2]; Homo sapiens, BXPC-3, 96 h): 84.7%

CC[C@@]1(O)C(=O)OCc2c1cc1n(c2=O)Cc2c-1nc1ccc(N)c3c1c2CCS3(=O)=O [Compound 15]
Emax ([2]; Homo sapiens, BXPC-3, 96 h): 87.9% | Emax [1, 7]: 83.6%

CCC1(O)CC(=O)OCc2c1cc1n(c2=O)Cc2c-1nc1ccc(N)c3c1c2CCC3 (centres unmarked) [Compound 17]
EC50 ([1]; Homo sapiens, 96 h, NCI-N87, killing days 4 days, read-out: EC50): 7.43 nM | Emax ([1]; Homo sapiens, 96 h, NCI-N87, killing days 4 days, read-out: Maximum Killing (%)): 87.6%

CC[C@@]1(O)C(=O)OCc2c1cc1n(c2=O)Cc2c-1nc1cc(F)c(N)c3c1c2CCO3 [Compound 18]
Emax ([2]; Homo sapiens, BXPC-3, 96 h): 99.6% | Emax [1, 7]: 92.9%

CC[C@@]1(O)C(=O)OCc2c1cc1n(c2=O)Cc2c-1nc1cc(F)c(N)c3c1c2C(F)(F)CO3 [Compound 19]
Emax ([2]; Homo sapiens, BXPC-3, 96 h): 97.4%

CC[C@@]1(O)C(=O)OCc2c1cc1n(c2=O)Cc2c-1nc1cc(F)c(N)c3c1c2C(F)(F)CC3 [Compound 20]
EC50 [2, 8]: 0.683 nM | Emax ([2]; Homo sapiens, BXPC-3, 96 h): 99.2% | EC50 ([1]; Homo sapiens, NCI-N87, 96 h, NCI-N87, killing days 4 days): 0.059 nM | Emax [1, 7]: 93.2%

CC[C@@]1(O)C(=O)OCc2c1cc1n(c2=O)Cc2c-1nc1cc(F)c(N)c3c1c2CCS3 [Compound 26]
Emax ([2]; Homo sapiens, BXPC-3, 96 h): 99.1% | Emax [1, 7]: 93.4%

CC[C@@]1(O)C(=O)OCc2c1cc1n(c2=O)Cc2c-1nc1cc(F)c(N)c3c1c2C(F)(F)CS3 [Compound 27]
Emax ([2]; Homo sapiens, BXPC-3, 96 h): 97.7% | Emax [1, 7]: 90.6%

CC[C@@]1(O)C(=O)OCc2c1cc1n(c2=O)Cc2c-1nc1ccc(N)c3c1c2C(F)(F)CO3 [Compound 31]
Emax ([2]; Homo sapiens, BXPC-3, 96 h): 93.7% | Emax [1, 7]: 90.7%

CC[C@@]1(O)C(=O)OCc2c1cc1n(c2=O)Cc2c-1nc1cc(F)c(C)c3c1c2[C@@H](NC(=O)CO)CC3 [Dxd]
Maximum Killing (%) ([2]; BxPC-3, killing days 4 days): 91.8% | EC50 ([2]; BxPC-3, killing days 4 days, read-out: EC50): 24.3 nM | EC50 [3]: 127 nM and 133 nM | Maximum Killing (%) [3]: 87.4% and 85.4% | Maximum Killing (%) [4]: 94.7% and 94.9% | Maximum Killing (%) ([1]; NCI-N87, killing days 4 days): 92.8% and 92.7% and 94.6%

CC[C@@]1(O)C(=O)OCc2c1cc1n(c2=O)Cc2c-1nc1ccc(N)c3c1c2CCC3 [MWC-1, reference compound]
EC50 [3]: 8.68 nM | EC50 ([3]; Homo sapiens, HT-29, 96 h): 9.89 nM | EC50 ([4]; 96 h): 14.8 nM | EC50 ([1]; Homo sapiens, NCI-N87, 96 h, NCI-N87, killing days 4 days, read-out: EC50): 4.44 nM | Emax [1, 7]: 93.4% | EC50 ([1]; NCI-N87, killing days 4 days, read-out: EC50): 5.22 nM

B1: Trop2-ADC-14 (antibody, human IgG1, kappa, V domains shown)
VH: QVQLVQSGAEVKKPGASVKVSCKASGYTFTSYWMHWVRQAPGQGLEWMGEITPSDNYGSYNQKFKGRVTITRDTSTSTAYMELSSLRSEDTAVYYCARGHGNYVSFDYWGQGTLVTVSS
VL: DIQMTQSPSSLSASVGDRVTITCRASQDISNYLNWYQQKPGKAPKLLIYYTSRLESGVPSRFSGSGSGTDFTLTISSLQPEDFATYFCQQGYTLPPYTFGQGTKLEIKR
modifications: drug-containing linker MWF-L6 (Compound 3 payload) bridged on cysteines of the reduced disulfide bonds, DAR 4.1; positions not given
notes: Antibody-drug conjugate: antibody h23-12 with MWF-L6, site-specific bridged conjugation, DAR 4.1; also called ADC 1o; h23-12 conjugated with drug-containing linker MWF-L6
EC50 [5]: 1.3 µg/mL

B2: Antibody h23-12 (antibody, human IgG1, kappa, V domains shown)
VH: B1 VH
VL: B1 VL
notes: Monoclonal antibody; also called the mAb in Trop2-ADC-14; anti-Trop-2 antibody h23-12
EC50 [6]: 1.14 µg/mL
